Reference: patent US6583179B2, “Substituted aminoalkylamide derivatives as antagonists of follicle stimulating hormone” (Ortho-McNeil Pharmaceutical, Inc., priority 1999, dated 2003)

Tests used:
human FSH receptor = molecular target: T1, human FSH receptor (Homo sapiens, UniProt P23945); assay: hFSHR CHO cAMP assay (rhFSHR-cLUC cells, FSH-stimulated cAMP, radioimmunoassay); format: cell-based; settings: inhibition of cAMP produced by EC70 dose of FSH (4.85 nM); maximum concentration 50 μM
T1 construct: expressed in transfected cells; host or cells: Chinese Hamster Ovary cells (K-1; ATCC), line rhFSHR-cLUC
T1 sequence (P23945 18-695): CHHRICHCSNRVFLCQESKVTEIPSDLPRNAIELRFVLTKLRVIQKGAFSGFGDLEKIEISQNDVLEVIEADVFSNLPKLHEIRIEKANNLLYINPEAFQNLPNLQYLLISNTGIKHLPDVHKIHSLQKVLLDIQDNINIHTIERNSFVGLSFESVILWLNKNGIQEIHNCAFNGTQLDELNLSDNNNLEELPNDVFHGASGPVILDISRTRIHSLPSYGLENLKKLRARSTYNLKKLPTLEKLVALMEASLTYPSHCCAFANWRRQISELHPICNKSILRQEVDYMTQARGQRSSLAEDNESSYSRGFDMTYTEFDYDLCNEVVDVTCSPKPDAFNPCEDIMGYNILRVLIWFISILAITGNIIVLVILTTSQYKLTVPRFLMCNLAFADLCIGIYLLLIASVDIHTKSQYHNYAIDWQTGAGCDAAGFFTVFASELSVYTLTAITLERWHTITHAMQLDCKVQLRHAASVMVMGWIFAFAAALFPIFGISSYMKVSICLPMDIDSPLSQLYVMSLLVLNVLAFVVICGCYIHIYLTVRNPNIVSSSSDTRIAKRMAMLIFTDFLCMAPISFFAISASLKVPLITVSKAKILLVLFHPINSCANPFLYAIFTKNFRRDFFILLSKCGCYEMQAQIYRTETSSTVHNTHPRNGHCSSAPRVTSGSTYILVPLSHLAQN
Description: Minimum Essential Medium-Alpha (MEM-alpha), fetal bovine serum (FBS), penicillin, streptomycin, geneticin, trypsin-EDTA, Hanks' Balanced Salt Solution (no Calcium chloride, Magnesium chloride, Magnesium sulfate, or phenol red; Ca-Mg free HBSS) were purchased from Gibco BRL (Gaithersburg, Md.). The cells used for the FSH bioassay (rhFSHR-cLUC) were Chinese Hamster Ovary cells (K-1; ATCC) stably transformed with human FSH receptor (pSVK-FSHr) and a cAMP luciferase reporter gene (responsive CGα-180LUC). Follicle Stimulating Hormone (Metrodin; Fertinex) was purchased from Serono, Ltd. (Norwell, Mass.).
The rhFSHR-cLUC cell cultures were maintained in MEM-Alpha supplemented with 10% heat-inactivated FBS (HIFBS), 100 U/ml penicillin, 100 μg/mL streptomycin, and included 0.1 g/L geneticin for stable cell selection.
Forty-eight hours after the cells were plated in sterile 96-well culture plates (Corning, Corning, N.Y.) the spent media was removed and 50 μl assay media (modified growth media with 2% HIFBS) containing 2 mM IBMX (3-isobutyl-1-methyl-xanthine) was added to the cells. Compounds (25 μl) in the appropriate concentration were added followed 5 minutes later by an EC70 dose of FSH (25 μl; 160 ng/ml; 4.85 nM). After 10 minutes @ 22.5° C. (room temperature) the reaction was terminated by addition of 25 μL 0.5 N hydrochloric acid to each well. The amount of cAMP produced was measured by radioimmunoassay in a FlashPlate (DuPont, Boston, Mass.). To each flash plate 60 μL flash plate buffer was added followed by 40 μL acidified cell sample or cAMP standard, followed with the addition of 100 μl ^125l-cAMP trace. The FlashPlates were sealed, incubated overnight @ room temperature, and counted in a Packard TopCount (Packard Instrument Co., Meriden, Conn.). The cAMP radioimmunoassay results were calculated using DPM conversion and log-logit transformation of % binding (Excel program).
(§1) Test compounds were solubilized in 30% dimethyl sulfoxide (DMSO) at a concentration of 10 mM before diluting to appropriate concentrations in assay medium. The final DMSO concentration in the treated cells and in the control cells was 0.75%.
For individual experiments, a set of samples were tested including a vehicle control (assay buffer), a reference compound (hFSH) at a range of concentrations designed to elicit a minimal to maximal response, and several concentrations of test compounds together with an EC70 concentration of standard (hFSH challenge). Each compound was performed in duplicates for the primary evaluation and quadruplicates for the dose-ranging experiments. The cAMP radioimmunoassay raw data (pmol) were calculated to provide average pmol cAMP produced/ml and the percent inhibition was calculated as shown below.
% Inh=[1−(Avg.pmoltest compound+standard)/(Avg.pmolstandard)]×100
EC50 values were calculated from an analysis of the concentration-inhibition data using a linear analysis of the data transformed to a log-logit format.

Rat Granulosa Cell = assay: Rat granulosa cell FSH-stimulated cAMP production; format: cell-based; settings: inhibition of cAMP produced by EC70 dose of FSH (1.4 nM), maximum concentration 50 μM
Description: Insulin, diethylstilbesterol, androstenedione, forskolin and DMSO were purchased from Sigma (St. Louis, Mo.). Fungizone, penicillin/streptomycin, charcoal-treated heat inactivated fetal bovine serum (CT-HI-FBS) and Dulbecco's Modified Eagle Medium:Hams F12 medium containing 15 mM Hepes and L-glutamine (DMEM:F12), were purchased from GIBCO BRL (Grand Island, N.Y.).
Ovine FSH (NIADDK-oFSH-17; FSH potency=20 NIH-FSH-S1 U/mg; LH contamination=0.04 times NIH-LH-S1) was received from Ogden Bioservices Corporation, Rockville, Md. Human FSH (Fertinex), was purchased from Serono Pharmaceutical (Framingham, Mass.). Human chorionic gonadotropin (hCG) was purchased from Sigma (St Louis, Mo.).
Immature intact female rats (Wistar-derived strain; 21-23 days old) were implanted with a single pellet (Innovative Research of America, Sarasota, Fla.) containing 2.5 mg diethylstilbesterol (DES) for 3 days. On the third day, the animals were sacrificed, the ovaries were removed, and the granulosa cells were isolated essentially as described in Haynes-Johnson et al., Biol. Reprod., 61 (1), 147-153, (1999). Granulosa cells were plated at a density of 300,000 cells per ml with 0.2 ml added to each well of 96 well culture dishes (Corning, N.Y.). Cultures were incubated at 37° C. in a humidified incubator (95% air, 5% CO2) overnight (18 hours).
Androstenedione (100,000X) was prepared by dissolving the steroid in 100% ethanol, and was subsequently diluted to a final concentration of 10^−7M containing 0.1% ethanol in assay media. The assay media was serum-free, DES-free, insulin-free media, prepared by adding 5 mL pen-strep,1.5 mL fungizone and 5 μL androstenedione to 493.5 mL DMEM F-12 media.
as §1
Test plates containing the granulosa cells were preincubated for 18 hours at 37° C. with 95% air, 5% CO2, 100% humidity. The spent media was removed and 50 μl assay media (DMEM:F12) containing 2 mM IBMX (3-isobutyl-1-methyl-xanthine) was added to the cells. Compounds (25 μl) in the appropriate concentration were added followed 5 minutes later by an EC70 dose of FSH (25 μl; 50 ng/ml; 1.4 nM). After 30 minutes @ 22.5° C. (room temperature) the reaction was terminated by addition of 25 μL 0.5 N hydrochloric acid to each well. The amount of cAMP produced was measured by radioimmunoassay in a FlashPlate (DuPont, Boston, Mass.). To each flash plate 60 μL flash plate buffer was added followed by 40 μL acidified cell sample or cAMP standard, followed with the addition of 100 μl ^125l-cAMP trace. The FlashPlates were sealed, incubated overnight @ room temperature, and counted in a Packard TopCount (Packard Instrument Co., Meriden, Conn.). The cAMP radioimmunoassay results were calculated using DPM conversion and log-logit transformation of % binding (Excel program).

| SMILES | EC50 (human FSH receptor) [nM] | EC50 (Rat Granulosa Cell) [nM] |
| --- | --- | --- |
| COc1ccccc1CCN(CC(=O)NCc1ccc(CN)cc1)S(=O)(=O)c1ccc(-c2cccc(F)c2)cc1 [Compound 14] | 740 | 1560 |
| COc1cccc(-c2ccc(S(=O)(=O)N(CCc3ccccc3OC)CC(=O)NCc3ccc(CN)cc3)cc2)c1 [Compound 16] | 1130 | 510 |
| COc1cccc(CN(CC(=O)NCC2CCC(CN)CC2)S(=O)(=O)c2ccc(-c3cccc(OC)c3)cc2)c1 (stereo not shown) [Compound 24] | 2330 | 1070 |
| COc1ccccc1CCN(CC(=O)NCC1CCC(CN)CC1)S(=O)(=O)c1ccc(-c2cccc(C(F)(F)F)c2)cc1 (stereo not shown) [Compound 29] | 3090 | 2060 |
| COc1ccccc1CCN(CC(=O)NCC1CCC(CN)CC1)S(=O)(=O)c1ccc(-c2ccccc2Cl)cc1 (stereo not shown) [Compound 31] | 910 | 1970 |
| COc1ccccc1CCN(CC(=O)NCC1CCC(CN)CC1)S(=O)(=O)c1ccc(-c2ccccc2C)cc1 (stereo not shown) [Compound 32] | 310 | 160 |
| COc1ccccc1CCN(CC(=O)NCC1CCC(CN)CC1)S(=O)(=O)c1ccc(-c2ccccc2OC)cc1 (stereo not shown) [Compound 33] | 420 | 180 |
| COc1ccccc1CN(CC(=O)NCC1CCC(CN)CC1)S(=O)(=O)c1ccc(-c2cnc(SC)nc2)s1 (stereo not shown) [Compound 73] | 4950 | 1450 |
| COc1ccccc1CCN(CC(=O)NC1CCC(N)CC1)S(=O)(=O)c1ccc(-c2ccccc2C)cc1 (stereo not shown) [Compound 94] | 34500 | 8910 |
| COc1ccccc1CCN(CC(=O)NCc1ccc(CN)cc1)S(=O)(=O)c1ccc(Cl)s1 [Compound 114] | 9780 | 8970 |
| C[C@@H](CN(CC(=O)NCc1ccc(CN)cc1)S(=O)(=O)c1ccc(-c2cccc(F)c2)cc1)c1ccccc1 [Compound 203] | 80 | 60 |
| C[C@H](CN(CC(=O)NCc1ccc(CN)cc1)S(=O)(=O)c1ccc(-c2ccccc2Cl)cc1)c1ccccc1 [Compound 208] | 60 | 40 |
| COc1ccccc1CCN(CC(=O)NCc1ccc(CN)cc1)S(=O)(=O)c1ccc(-c2ccccc2C)s1 [Compound 272] | 550 | 600 |
| Cc1ccccc1-c1ccc(S(=O)(=O)N(CC(=O)NCC2CCCC(CN)C2)C[C@H](C)c2ccccc2)cc1 (stereo partly shown) [Compound 384] | 270 | 80 |
